Reference: US5702923A, “Method of making a lactococcal bacteriocin” (Quest International Flavors & Food Ingredients Company, a …, priority 1992, dated 1997)

Experiments:
[1] = test system: strain NRRL-B-18535; assay: Sensitivity of the producer strain to nisin; format: cell-based, Lactococcus lactis
Source text: Inhibitory spectrum of LL-1. The plate assay system was used to evaluate the spectrum of bacteriocin activity. […] Strains of Streptococcus mutans, S. sanguis, S. faecalis and Listeria monocytogenes were not sensitive in this test. The strain NRRL-B-18535 was resistant to nisin.

[2] = test system: L. monocytogenes 69; assay: Inhibition of Listeria, LL-1 compared with nisin; format: cell-based, Listeria monocytogenes; parameters: key: + = Inhibition; - = No inhibition; details: 370 IU/ml, nisin purified from the broth
Source text: This is shown by the following data in Table 5.

[3] = test system: Listeria monocytogenes; assay: Spot assay of filter sterilized supernatant (LL-1 broth) on indicator lawn; format: cell-based; details: as crude filter sterilized broth or dried powder from the broth, not purified
Experimental: To produce the bacteriocin, 500 ml of MRS broth (Difco) was inoculated at 1% with an 8 hour old culture of LLA 1.0 grown in MRS broth (Difco, Detroit, Mich.) and was incubated statically at 32° C. for 24 hours. After 24 hours the cells were removed by centrifugation at 16,000×g for 20 minutes at 4° C. The supernatant was filtered through a 0.22 micron (pore size) filter (Millipore Corp. Bedford, Mass.). The supernatant was assayed for bacteriocin activity by spotting 5 microliters of this supernatant material onto various media overlaid with soft agar seeded with different indicator cells. These assay plates were incubated at 35° C. or 32° C., respectively. After 24 hours the plates were examined, clear zones associated with the spot were recorded as positive (growth inhibition) and negative (no growth inhibition).

nisin
sensitivity of strain NRRL-B-18535 to nisin [1]: resistant | Inhibition of L. monocytogenes 69 [2]: - | activity against Listeria monocytogenes, in words [3]: not effective
